Measured values: patent EP0390654B1, “Aminobenzenesulfonic acid derivative” (Mitsubishi Chemical Corporation, priority 1989, dated 1990)

Tests used:
[1] = test system: Papillary muscle of right ventricle; test: Inhibition of the cardiotonic activity of isoproterenol (developed tension) in isolated papillary muscle, as index of inhibiting Ca²⁺ overload into cells; parameters: species or system male Hartley-strain guinea-pigs; details: Drug concentration 10⁻³ M; inhibition of developed tension increased by isoproterenol
Method: For evaluation of the extent of inhibiting Ca²⁺ overload into cells, which is the pharmacological activity of the compound of the present invention, inhibition of the cardiotonic activity of isoproterenol by the compounds of the present invention was measured.
That is to say, since isoproterenol has been known to cause Ca²⁺ overload by excessive Ca²⁺ influx into cardiac muscle cells (Fleckenstein A., Janke J., Doring H., Leder O.; Recent advances in Studies on cardiac structure and metabolism, Myocardial Biology, Vol. 4, pp. 563 - 580 (1974)), the compound which inhibits the activity of isoproterenol can inhibit Ca²⁺ overload into cells.
Papillary muscle of right ventricle isolated from male Hartley-strain guinea-pigs (body weight: 250 to 350 g) was suspended in an organ bath filled with a nutrient solution (Krebs-Henseleit solution). The temperature of the nutrient solution was maintained at 32 °C, and a gas mixture of 95 % oxygen and 5 % carbon dioxide was aerated. The papillary muscle was applied with a resting tension of about 0.5 g, and stimulated with platinum electrodes by an electric pulse wave of a duration of 1 msec, a frequency of 1 Hz and a voltage higher by 15 % than the threshold value. The developed tension of the papillary muscle was measured through a tension transducer and recorded with a polygraph. After the specimen was stabilized for about 90 minutes, isoproterenol ([…]) was added into the organ bath so that developed tension could be increased by 100 % or more, and at the point when the maximum reaction was obtained, the compounds of the present invention were added into the organ bath, and % inhibition of the developed tension increased by isoproterenol was measured.

[2] = test system: isolated heart of rat; test: Protective effect on ischemic myocardium, Langendorff-perfused isolated heart (ischemia 90 minutes, then reperfusion); parameters: species or system Male Wister rats; details: for Developed tension (%): % of value in equilibration period, 30 minutes after reperfusion, Control 32.5; for Rise in resting tension: just before reperfusion, Control 0.72
Method: For the evaluation of the protective effect of ischemic myocardium, two parameters (rise in resting tension and decrease in developed tension), indices of myocardial injury, were measured in the myocardial ischemic model using isolated heart of rat.
It is reported that drugs which have the protective effect on ischemic myocardium attenuates the rise in resting tension and decrease in developed tension induced by Ca²⁺ overload into myocardial cells when the heart is exposed to ischemia. (Araki, H. & Lefer, AM.: Role of prostacyclin in the preservation of ischemic myocardial tissue in the perfused cat heart. Circ. Res., 47: 757-763, 1980).
Male Wister rats (250-350 g) were killed and their hearts excised. The hearts were then arranged for coronary perfusion with Krebs-Henseleit solution (37 °C, aerated with a gas mixture of 95 % O₂ - 5 % CO₂) according to the method of Langendorff. Tension development was monitored with a force displacement transducer attached via a cotton ligature to the ventricular apex with a resting tension of 1.5 g. After a equilibration period of 1 hour, myocardial ischemia was induced by lowering perfusion pressure from 80 cm H₂O to 12 cm H₂O for 90 minutes. The heart was then reperfused with the previous perfusion pressure of 80 cm H₂O. Rise in resting tension (g) just before reperfusion and developed tension (%) (% of value in equilibration period) 30 minutes after reperfusion were measured.

[3] = Acute toxicity, 50 % lethal dose (LD₅₀); details: mouse, in vivo, male mice
Method: Among compounds of the present invention, the compound No. 110 was tested for its acute toxicity.
Compound No. 110 was administered to male mice (18 - 25 g) for determination of 50 % lethal dose (LD₅₀). Two routes of administration tested were as follows: • 1) intravenous (into tail vein) administration in which calculation of LD₅₀ was according to up and down method and • 2) oral administration in which calculation of LD₅₀ was according to probit method. Compound No. 110 was diluted in physiological salt solution (0.9 % sodium chloride) for intravenous administration and distilled water for oral administration.

Question: For `CCCc1ccc(N2CCN(Cc3ccc(OC)c(OC)c3)CC2)c(S(=O)(=O)O)c1` [Compound No. 66], which “Inhibition (%)” value [1] is on record?
Answer: The value was 52.4%.

Question: For `O=S(=O)(O)c1cc(Cl)ccc1N1CCNCC1` [compound 93], which “Inhibition (%)” value [1] is on record?
Answer: Its value is 28.0%.

Question: For `CCCc1ccc(N2CCNCC2)c(S(=O)(=O)O)c1.Cl` [Compound No. 110, 2-(1-piperazinyl)-5-n-propylbenzenesulfonic acid hydrochloride], which “Developed tension (%)” value ([2]; Drug concentration 10⁻⁵ M) is on record?
Answer: Its value is 77.0%.

Question: What about the “Rise in resting tension” value ([2]; Drug concentration 10⁻⁵ M) of the same molecule?
Answer: Its value is 0.09 g.

Question: What about the “Developed tension (%)” value ([2]; Drug concentration 10⁻⁶ M) of the same molecule?
Answer: Its value is 65.4%.

Question: And the “Rise in resting tension” value ([2]; Drug concentration 10⁻⁶ M)?
Answer: The value was 0.33 g.

Question: What about the “Developed tension (%)” value ([2]; Drug concentration 10⁻⁷ M) of the same molecule?
Answer: The value was 32.2%.

Question: And the “Rise in resting tension” value ([2]; Drug concentration 10⁻⁷ M)?
Answer: The value was 0.48 g.

Question: And the LD50 ([3]; Intravenous administration (tail vein), up and down method)?
Answer: Its LD50 is 63 mg/kg.

Question: What about the LD50 ([3]; Oral administration, probit method) of the same molecule?
Answer: The LD50 was 2800 mg/kg.

Question: Which “Inhibition (%)” value [1] does the source give for `Cc1ccc(N2CCNCC2)c(S(=O)(=O)O)c1` [Compound No. 12, 2-(1-piperazinyl)-5-methylbenzenesulfonic acid] here?
Answer: The value was 18.5%.

Question: With `CCCc1ccc(N2CCN(Cc3ccc(OC)c(OC)c3OC)CC2)c(S(=O)(=O)O)c1` [Compound No. 69, 2-[4-(2,3,4-trimethoxybenzyl)-1-piperazinyl]-5-n-propylbenzenesulfonic acid] as the molecule, how does the “Inhibition (%)” value [1] read?
Answer: The value was 21.4%.

Question: With `O=S(=O)(O)c1cc(Br)ccc1N1CCNCC1` [compound 94] as the molecule, how does the “Inhibition (%)” value [1] read?
Answer: Its value is 18.5%.

Question: With `CC(C)c1ccc(N2CCNCC2)c(S(=O)(=O)O)c1` [compound 111] as the molecule, how does the “Inhibition (%)” value [1] read?
Answer: The value was 27.5%.

Question: Which “Inhibition (%)” value [1] does the source give for `O=S(=O)(O)c1cc(-c2ccccc2)ccc1N1CCNCC1` [compound 91] here?
Answer: Its value is 17.2%.

Question: For `CCCc1ccc(N2CCCN(C)CC2)c(S(=O)(=O)O)c1` [compound 89], which “Developed tension (%)” value ([2]; Drug concentration 10⁻⁵ M) is on record?
Answer: Its value is 58.4%.

Question: And the “Rise in resting tension” value ([2]; Drug concentration 10⁻⁵ M)?
Answer: The value was 0.25 g.
